The results in this text go back to PMC4210890, “Suvanine Sesterterpenes from a Tropical Sponge Coscinoderma sp. Inhibit Isocitrate Lyase in the Glyoxylate Cycle” (Marine Drugs, 2014).

Experiment [1] concerns the target T1, recombinant ICL from C. albicans ATCC 10231 (Candida albicans, UniProt Q9P8Q7).
T1 construct: thioredoxin (fusion partner of the pBAD/Thio-TOPO vector); made in house; host or cells: Escherichia coli TOP10
Put plainly: biochemical. How it is done:
Compound 1−9 were obtained as mentioned previously (Figure 1). The expression and purification of recombinant ICL from the genomic DNA of C. albicans (ATCC 10231) were carried out by a method described previously. The inhibitory effects of the isolated compounds on ICL were evaluated according to a procedure documented previously. The basic concept of this method was to measure spectrophotometrically the formation of glyoxylate phenylhydrazone in the presence of phenylhydrazine and isocitrate. The effect of the inhibitor on ICL was calculated as a percentage relative to dimethyl sulfoxide (DMSO)-treated control. Mixture of ICL, substrate, phenyhydrazine was incubated for 30 min with various concentrations of suvanine sesterterpenes (100 to 0.1 μg/mL). The formation of glyoxylate phenylhydrazone was followed spectrophotometrically at 324 nm. Data were scaled to internal controls, and a four- parameter logistic model (GraphPad ver. 5.0, Prism) was used to fit the measured data and determine IC50 (inhibitory concentration for 50% activity) values.
The preparation of recombinant ICL protein from the genomic DNA of C. albicans ATCC 10231 was carried out using a method described previously. Briefly, ICL was PCR-amplified using two synthetic primers: 5′-[…]-3′ (forward) and 5′-[…]-3′ (reverse). The PCR product was cloned into the pBAD/Thio-TOPO vector (Invitrogen, Carlsbad, CA, USA) and transformed into Escherichia coli TOP10 (Invitrogen).
The effect of isolated compounds on ICL was evaluated according to a procedure documented previously. A 1-mL aliquot of the reaction mixture contained 20 mM sodium phosphate buffer (pH 7.0), 1.27 mM threo-DL (+) isocitrate, 3.75 mM MgCl2, 4.1 mM phenylhydrazine and 2.5 μg/mL purified ICL. The reaction was performed at 37 °C for 30 min with and without a prescribed concentration of the inhibitor dissolved in DMSO (final concentration, 0.5%). The formation of glyoxylate phenylhydrazone was followed spectrophotometrically at 324 nm. The effect of the inhibitor on ICL was calculated as a percentage relative to the solvent-treated control. A 12-point, twofold serial dilution dose–response assay was performed in triplicate. The resultant dose–response concentration range was 100 to 0.1 μg/mL of inhibitor in a 1-mL final reaction volume. Data were scaled to internal controls, and a four-parameter logistic model (GraphPad ver. 5.0, Prism) was used to fit the measured data and determine the IC50 values. The ICL inhibitor 3-nitropropionate was used as a positive control. Protein concentration was determined by the method of Bradford using the Bio-Rad protein assay kit (Bio-Rad, Hercules, CA, USA) and bovine serum albumin as a standard.

A further experiment has as its system C. albicans SC5314. Kind of experiment: In vitro growth assay (MIC) in YNB broth with glucose or acetate. The class given is cell-based, Candida albicans. The note with it: 3 days at 28 °C; for MIC: Candida albicans, 72 h. On the procedure:
The microbial strategy for survival during growth in a nutrient-free environment entails a metabolic shift in the carbon source to C2 substrates generated by β-oxidation of fatty acids. […] To investigate whether ICL inhibitors affected C2 substrate use, we cultured C. albicans strain SC5314 in YNB broth containing either 2% glucose or 2% potassium acetate as the sole carbon source, and inhibition was evaluated based on the MIC.
C. albicans strains were grown in YNB ([…] yeast nitrogen base) broth containing 2% glucose at 28 °C for 24 h, harvested by centrifugation, and washed twice with sterile distilled water. Each test compound was dissolved in DMSO and diluted with YNB containing 2% glucose or 2% potassium acetate to prepare serial twofold dilutions in the range 100–0.1 μg/mL. The final DMSO concentration was maintained at 0.5% by adding DMSO to the medium. Twenty microliters of the broth containing test fungus was added to each well of a 96-well microtiter plate (final concentration of 1 × 10^4 cells/mL). Culture plates were incubated for 3 days at 28 °C. […] Amphotericin B was used as a reference compound.

For the next experiment, the target named is ICL from C. albicans (Candida albicans, UniProt Q9P8Q7). Put plainly: biochemical. Type of experiment: biochemical. The note with it: for type of inhibition: Lineweaver and Burk plot at IC50 or twofold IC50; for reversibility of binding to enzyme: enzyme activity recovered by dialysis within 2 h. How it is done: To determine the type of inhibition, kinetic studies were performed with compounds 1, 2 and 4 at IC50 or twofold IC50 based on Lineweaver and Burk plot (Figure 3). Inhibitor constants were obtained by Dixon plot.
Sequence of ICL from C. albicans (Q9P8Q7 whole entry): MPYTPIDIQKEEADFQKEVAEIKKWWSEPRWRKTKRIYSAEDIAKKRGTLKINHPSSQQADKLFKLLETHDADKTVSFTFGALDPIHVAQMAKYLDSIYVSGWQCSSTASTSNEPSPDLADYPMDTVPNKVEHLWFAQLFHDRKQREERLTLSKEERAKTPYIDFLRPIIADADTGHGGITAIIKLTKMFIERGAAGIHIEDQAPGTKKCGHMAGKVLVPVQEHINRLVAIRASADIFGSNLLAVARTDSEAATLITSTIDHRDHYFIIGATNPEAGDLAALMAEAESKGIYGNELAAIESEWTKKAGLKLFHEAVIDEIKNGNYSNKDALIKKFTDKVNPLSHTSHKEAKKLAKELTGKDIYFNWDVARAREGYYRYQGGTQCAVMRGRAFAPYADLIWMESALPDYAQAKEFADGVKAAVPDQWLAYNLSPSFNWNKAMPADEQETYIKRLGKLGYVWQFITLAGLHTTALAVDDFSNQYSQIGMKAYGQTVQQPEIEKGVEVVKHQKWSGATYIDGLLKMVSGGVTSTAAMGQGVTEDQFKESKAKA
Figure 3 Lineweaver-Burk plot of ICL inhibition by compounds 1, 2 and 4. [S], substrate concentration [mM]; V, reaction velocity (∆absorbance unit/min). Each data point represents the mean of three experiments.

In experiment [2] the test system is ICL mRNA expression in C. albicans. Put plainly: Semi-quantitative RT-PCR analysis of ICL mRNA expression. The class given is cell-based, Candida albicans. The note with it: acetate medium.
Experiment [3] concerns C. albicans strain SC5314 (wild-type), MRC10 (Δicl), and MRC11 (Δicl + ICL). Kind of experiment: Growth phenotype of wild-type and ICL deletion mutants on YNB agar plates. Type of experiment: cell-based, Candida albicans. The note with it: 12.5 μg/mL, 3 days at 28 °C.
The mark [4] stands for this setting: YNB broth with 2% glucose, read-out: MIC, Glucose.
Setting [5] is: YNB broth with 2% potassium acetate, read-out: MIC, Acetate.
The mark [6] stands for this setting: recombinant ICL from C. albicans ATCC 10231, 37 °C, 30 min, mean ± SD (n = 3), read-out: ICL IC50.
The mark [7] stands for this setting: recombinant ICL from C. albicans ATCC 10231, value in parentheses, read-out: ICL IC50.
[8] abbreviates: YNB broth with 2% potassium acetate.
Setting [9] is: recombinant ICL from C. albicans ATCC 10231, value in parentheses.

≈ marks a conversion by molar mass, not a printed value. Where “and” joins values, the source holds several entries; their conditions need not be identical. Identical values can stand only once. Like-named read-outs stand apart in the source and are kept apart here. A value given as a limit tells only on which side of the number the result lay.

T1 sequence (Q9P8Q7 whole entry, the tested form may be a part): as the sequence (Q9P8Q7 whole entry) above

Consider `CO[C@H]1C=C(CC[C@H]2/C(=C/OS(=O)(=O)[O-])CC[C@H]3[C@]2(C)CC[C@H]2C(C)(C)CCC[C@]32C)[C@@H](OC)O1.[Na+]` [Compound 7], for which the IC50 in experiment [1] (ICL IC50) was 59.1 µM and 51.1 µM. Besides, the MIC in the experiment with C. albicans SC5314 (setting [4]) and with C. albicans SC5314 (setting [5]) was above 100 µg/mL throughout.
As for `CO[C@@H]1C=C(CC[C@H]2/C(=C/OS(=O)(=O)[O-])CC[C@H]3[C@]2(C)CC[C@H]2C(C)(C)CCC[C@]32C)C(=O)O1.[Na+]` [Compound 5], the figures for the IC50 in experiment [1] (setting [6]) and in experiment [1] (setting [7]) were 50.2 ± 6.27 µM and 50.2 ± 3.25 µM, respectively. The MIC in the experiment with C. albicans SC5314 (setting [4]) and with C. albicans SC5314 (setting [5]) was above 100 µg/mL each time.
In the case of `C=C(CC(=O)O)C(=O)O` [Itaconate, itaconate, reference compound], the MIC in the experiment with C. albicans SC5314 (setting [4]) and in the experiment with C. albicans SC5314 (setting [5]) was above 100 µg/mL each time.
As to `CC1(C)CCC[C@]2(C)[C@H]3CC/C(=C\OS(=O)(=O)[O-])[C@H](CCC4=CC(=O)OC4)[C@@]3(C)CC[C@@H]12.[Na+]` [Compound 4], in experiment [1] (ICL IC50), the IC50 is 26.3 µM and 26.2 µM. For the same compound, on ICL from C. albicans, the Ki worked out at 62.6 µM, the type of inhibition result is given as “mixed noncompetitive inhibitors” and the “reversibility of binding to enzyme” value is reported as “reversible”. For the same compound, the MIC in the experiment on C. albicans SC5314 (setting [4]) was above 100 µg/mL. Besides, the minimal inhibitory concentration (MIC) in the experiment on C. albicans SC5314 (setting [5]) came to 100 µg/mL.
Consider `CC1(C)CCC[C@]2(C)[C@H]3CC/C(=C\OS(=O)(=O)[O-])[C@H](CCc4ccoc4)[C@@]3(C)CC[C@@H]12.[Na+]` [Compound 2, suvanine salt], for which the IC50 in experiment [1] (ICL IC50) was found to be 6.35 µM. At ICL from C. albicans, the affinity corresponds to a Ki of 14.4 µM, the type of inhibition entry was “mixed noncompetitive inhibitors” and the “reversibility of binding to enzyme” value is “reversible”. The MIC in the experiment on C. albicans SC5314 (setting [4]) is 100 µg/mL. Also, the MIC in the experiment with C. albicans SC5314 (setting [5]) turned out to be 12.5 µg/mL. In addition, the “MIC, Acetate” value in the experiment with C. albicans SC5314 (setting [8]) stood at 12.5 µg/mL. Moreover, the “reduction of ICL mRNA expression” value in experiment [2] (12.5 μg/mL, 4 h at 28 °C, densitometric analysis) is listed as “seventeenfold”. Further, the “ICL transcript levels with increasing compound concentration” value in experiment [2] (SC5314 and MRC11, 6.25 and 12.5 µg/mL) was “diminished with increasing compound 2 concentrations”. The “growth on YNB agar plates containing glucose plus compound” value in experiment [3] (SC5314, MRC10, MRC11, 2% glucose) is “grew normally”. Besides, the “growth on YNB agar plates containing acetate plus compound” value in experiment [3] (all tested strains, 2% sodium acetate) is on record as “inhibited markedly”.
On to `CC1(C)CCC[C@]2(C)[C@H]3CC/C(=C\OS(=O)(=O)[O-])[C@H](CCC4=CCNC4=O)[C@@]3(C)CC[C@@H]12.[Na+]` [Compound 9], for which the IC50 in experiment [1] (setting [6]) worked out at 59.2 ± 1.11 µM; in experiment [1] (setting [7]), 59.1 ± 0.54 µM. Also, the minimal inhibitory concentration (MIC) with C. albicans SC5314 (setting [4]) and in the experiment with C. albicans SC5314 (setting [5]) was above 100 µg/mL in each case.
With `C[C@@H]1[C@H](O)[C@@H](C)/C=C/C=C/C=C/C=C/C=C/C=C/C=C/[C@H](O[C@@H]2O[C@H](C)[C@@H](O)[C@H](N)[C@@H]2O)C[C@@H]2O[C@](O)(C[C@@H](O)C[C@@H](O)[C@H](O)CC[C@@H](O)C[C@@H](O)CC(=O)O[C@H]1C)C[C@H](O)[C@H]2C(=O)O` [Amph B, Amphotericin B, reference compound], the MIC with C. albicans SC5314 (setting [4]) was 1.56 µg/mL (≈ 1.69 µM); in the experiment on C. albicans SC5314 (setting [5]), 0.39 µg/mL (≈ 0.422 µM).
For `CC1(C)CCC[C@]2(C)[C@H]3CC/C(=C\OS(=O)(=O)[O-])[C@H](CCc4ccoc4)[C@@]3(C)CC[C@@H]12.C[N+](C)=C(N)N` [Compound 1, suvanine salt], the “ICL IC50” value in experiment [1] is recorded as 22.43 ± 1.49 (12.03 ± 0.80) µg/mL. For the same compound, the IC50 in experiment [1] (read-out: ICL IC50) came to 22.4 µM. Further, on ICL from C. albicans, the type of inhibition result is “uncompetitive inhibitor” and the “reversibility of binding to enzyme” value is “reversible”. For the same compound, at ICL from C. albicans (obtained by Dixon plot, read-out: Ki (inhibitor constant)), the Ki is 17.4 µM. Moreover, the “MIC, Glucose” value against C. albicans SC5314 (YNB broth with 2% glucose) is given as 100 µg/mL. For the same compound, the “MIC, Acetate” value in the experiment on C. albicans SC5314 (setting [8]) is 25 µg/mL.
On to `O=C(O)CC[N+](=O)[O-]` [Compound 3-NP, 3-Nitropropinate, reference compound], for which the IC50 in experiment [1] (setting [6]) was found to be 17.3 ± 1.04 µM. Further, the “ICL IC50” value in experiment [1] (setting [9]) was determined as 2.06 ± 0.12 µg/mL. Moreover, the “MIC, Glucose” value against C. albicans SC5314 (YNB broth with 2% glucose) was above 100 µg/mL. Besides, in the experiment with C. albicans SC5314 (setting [8]), the “MIC, Acetate” value is listed as above 100 µg/mL.
Consider `CO[C@@H]1O[C@H](OC)[C@](O)(CC[C@H]2/C(=C/OS(=O)(=O)O)CC[C@H]3[C@]2(C)CC[C@H]2C(C)(C)CCC[C@]32C)[C@H]1O` [Compound 8], for which the IC50 in experiment [1] (ICL IC50) is 67.6 µM. Further, the MIC in the experiment with C. albicans SC5314 (setting [4]) and in the experiment on C. albicans SC5314 (setting [5]) was above 100 µg/mL each time.
In the case of `CO[C@H]1C=C(CC[C@H]2/C(=C/OS(=O)(=O)[O-])CC[C@H]3[C@]2(C)CC[C@H]2C(C)(C)CCC[C@]32C)C(=O)O1.[Na+]` [Compound 6], the IC50 in experiment [1] (setting [6]) turned out to be 96.2 ± 1.54 µM; in experiment [1] (setting [7]), 96.08 ± 0.799 µM. The MIC in the experiment with C. albicans SC5314 (setting [4]) was above 100 µg/mL; in the experiment with C. albicans SC5314 (setting [5]), 100 µg/mL.
Take `CC1(C)CCC[C@]2(C)[C@H]3CC/C(=C\OS(=O)(=O)[O-])[C@H](CCC4=CC(=O)O[C@@H]4O)[C@@]3(C)CC[C@@H]12.[Na+]` [Compound 3]: the IC50 in experiment [1] (setting [6]) came to 56.2 ± 7.1 µM. Further, the “ICL IC50” value in experiment [1] (setting [9]) is given as 28.33 ± 3.58 µg/mL. The MIC in the experiment on C. albicans SC5314 (setting [4]) and with C. albicans SC5314 (setting [5]) was above 100 µg/mL in each case.
